According to ChEMBL document CHEMBL1124541, “Antibacterials. Synthesis and structure-activity studies of 3-aryl-2-oxooxazolidines. 1. The "B" group” (1989):
In brackets after ≈: the same amount, converted by molar mass.

Tests used:
Staphylococcus aureus [1] = test: In vitro minimum inhibitory concentration against Staphylococcus aureus (SFCO-1a); type: functional
Enterococcus faecalis [2] = test: In vitro minimum inhibitory concentration against Enterococcus faecalis (STCO-19); type: functional
Enterococcus faecalis [3] = system: Enterococcus faecalis
Staphylococcus aureus [4] = system: Staphylococcus aureus

Molecule: CC1CN(c2ccc(S(C)(=O)=O)cc2)C(=O)O1 (stereo not given)
- MIC (Staphylococcus aureus [1]): 64 µg/mL (≈ 251 µM)
- MIC (Enterococcus faecalis [2]): 128 µg/mL (≈ 501 µM)

Molecule: CS(=O)(=O)c1ccc(N2CC(CCl)OC2=O)cc1 (stereo not given)
- MIC (Staphylococcus aureus [1]): 8 µg/mL (≈ 27.6 µM)
- MIC (Enterococcus faecalis [2]): 4 µg/mL (≈ 13.8 µM)

Molecule: C[S+]([O-])c1ccc(N2CC(CCl)OC2=O)cc1 (stereo not given)
- MIC (Staphylococcus aureus [1]): 32 µg/mL (≈ 117 µM)
- MIC (Enterococcus faecalis [2]): 32 µg/mL (≈ 117 µM)

Molecule: CC(=O)c1ccc(N2CC(CO)OC2=O)cc1 (stereo not given)
- MIC (Staphylococcus aureus [1]): 16 µg/mL (≈ 68 µM)
- MIC (Enterococcus faecalis [2]): 16 µg/mL (≈ 68 µM)

Molecule: CCC(=O)NC[C@H]1CN(c2ccc(C(C)=O)cc2)C(=O)O1
- MIC (Staphylococcus aureus [1]): 4 µg/mL (≈ 13.8 µM)
- MIC (Enterococcus faecalis [2]): 4 µg/mL (≈ 13.8 µM)

Molecule: CC(=O)c1ccc(N2C[C@H](CNC(=O)CC#N)OC2=O)cc1
- MIC (Staphylococcus aureus [1]): 16 µg/mL (≈ 53.1 µM)
- MIC (Enterococcus faecalis [2]): 8 µg/mL (≈ 26.6 µM)

Molecule: CS(=O)(=O)c1ccc(N2CC(CO)OC2=O)cc1 (stereo not given)
- MIC (Staphylococcus aureus [1]): 16 µg/mL (≈ 59 µM)
- MIC (Enterococcus faecalis [2]): 16 µg/mL (≈ 59 µM)

Molecule: CC(=O)c1ccc(N2C[C@H](CNC=O)OC2=O)cc1
- MIC (Staphylococcus aureus [1]): 4 µg/mL (≈ 15.3 µM)
- MIC (Enterococcus faecalis [2]): 8 µg/mL (≈ 30.5 µM)

Molecule: CC(C)c1ccc(N2CC(CO)OC2=O)cc1 (stereo not given)
- MIC (Staphylococcus aureus [1]): 64 µg/mL (≈ 272 µM)
- MIC (Enterococcus faecalis [2]): 32 µg/mL (≈ 136 µM)

Molecule: NS(=O)(=O)c1ccc(N2CC(CO)OC2=O)cc1 (stereo not given)
- MIC (Staphylococcus aureus [1]): 128 µg/mL (≈ 470 µM)
- MIC (Enterococcus faecalis [2]): 128 µg/mL (≈ 470 µM)

Molecule: CS(=O)(=O)c1ccc(N2CC(CN)OC2=O)cc1 (stereo not given)
- MIC (Staphylococcus aureus [1]): > 128 µg/mL
- MIC (Enterococcus faecalis [2]): > 128 µg/mL

Molecule: CC1=C(C(=O)O)N2C(=O)[C@@H](NC(=O)[C@H](N)c3ccccc3)[C@H]2SC1 [CEPHALEXIN ANHYDROUS]
- MIC (Staphylococcus aureus [1]): 0.5 µg/mL (≈ 1.44 µM)
- MIC (Enterococcus faecalis [2]): 64 µg/mL (≈ 184 µM)

Molecule: CC(=O)NCC1CN(c2ccc(C(C)C)cc2)C(=O)O1 (stereo not given)
- MIC (Staphylococcus aureus [1]): 4 µg/mL (≈ 14.5 µM)
- MIC (Enterococcus faecalis [2]): 4 µg/mL (≈ 14.5 µM)

Molecule: CC(=O)NCC1CN(c2ccc(S(C)(=O)=O)cc2)C(=O)O1 (stereo not given)
- MIC (Staphylococcus aureus [1]): 4 µg/mL (≈ 12.8 µM)
- MIC (Enterococcus faecalis [2]): 4 µg/mL (≈ 12.8 µM)

Molecule: CC(=O)c1ccc(N2C[C@H](CNC(=O)C(C)C)OC2=O)cc1
- MIC (Staphylococcus aureus [1]): 8 µg/mL (≈ 26.3 µM)
- MIC (Enterococcus faecalis [2]): 16 µg/mL (≈ 52.6 µM)

Molecule: CSc1ccc(N2CC(CNC(C)=O)OC2=O)cc1 (stereo not given)
- MIC (Staphylococcus aureus [1]): 4 µg/mL (≈ 14.3 µM)
- MIC (Enterococcus faecalis [2]): 4 µg/mL (≈ 14.3 µM)

Molecule: C=CC1CN(c2ccc(C(C)=O)cc2)C(=O)O1 (stereo not given)
- MIC (Staphylococcus aureus [1]): > 128 µg/mL
- MIC (Enterococcus faecalis [2]): > 128 µg/mL

Molecule: CC(=O)c1ccc(N2C[C@H](CNC(=O)CSC#N)OC2=O)cc1
- MIC (Staphylococcus aureus [1]): 32 µg/mL (≈ 96 µM)
- MIC (Enterococcus faecalis [2]): 32 µg/mL (≈ 96 µM)

Molecule: CC(=O)c1ccc(N2CC(CN3C(=O)c4ccccc4C3=O)OC2=O)cc1 (stereo not given)
- MIC (Staphylococcus aureus [1]): > 128 µg/mL
- MIC (Enterococcus faecalis [2]): > 128 µg/mL

Molecule: CCCC(=O)NC[C@H]1CN(c2ccc(C(C)=O)cc2)C(=O)O1
- MIC (Staphylococcus aureus [1]): 8 µg/mL (≈ 26.3 µM)
- MIC (Enterococcus faecalis [2]): 8 µg/mL (≈ 26.3 µM)

Molecule: CSc1ccc(N2CC(CCl)OC2=O)cc1 (stereo not given)
- MIC (Staphylococcus aureus [1]): > 128 µg/mL
- MIC (Enterococcus faecalis [2]): > 128 µg/mL

Molecule: CC(C)c1ccc(N2CC(CCl)OC2=O)cc1 (stereo not given)
- MIC (Staphylococcus aureus [1]): 64 µg/mL (≈ 252 µM)
- MIC (Enterococcus faecalis [2]): 64 µg/mL (≈ 252 µM)

Molecule: CC(=O)c1ccc(N2CC(COS(=O)(=O)c3ccc(C)cc3)OC2=O)cc1 (stereo not given)
- MIC (Staphylococcus aureus [1]): 8 µg/mL (≈ 20.5 µM)
- MIC (Enterococcus faecalis [2]): 8 µg/mL (≈ 20.5 µM)

Molecule: CC(=O)c1ccc(N2CC(CN3CCOCC3)OC2=O)cc1 (stereo not given)
- MIC (Staphylococcus aureus [1]): > 128 µg/mL
- MIC (Enterococcus faecalis [2]): > 128 µg/mL

Molecule: [N-]=[N+]=NCC1CN(c2ccc(S(N)(=O)=O)cc2)C(=O)O1 (stereo not given)
- MIC (Staphylococcus aureus [1]): 32 µg/mL (≈ 108 µM)
- MIC (Enterococcus faecalis [2]): 64 µg/mL (≈ 215 µM)

Molecule: CC(=O)c1ccc(N2CC(CN)OC2=O)cc1 (stereo not given)
- MIC (Staphylococcus aureus [1]): > 128 µg/mL
- MIC (Enterococcus faecalis [2]): > 128 µg/mL

Molecule: CC(=O)NCC1CN(c2ccc([S+](C)[O-])cc2)C(=O)O1 (stereo not given)
- MIC (Staphylococcus aureus [1]): 4 µg/mL (≈ 13.5 µM)
- MIC (Enterococcus faecalis [2]): 4 µg/mL (≈ 13.5 µM)

Molecule: CSc1ccc(N2CC(C)OC2=O)cc1 (stereo not given)
- MIC (Staphylococcus aureus [1]): > 128 µg/mL
- MIC (Enterococcus faecalis [2]): > 128 µg/mL

Molecule: C[S+]([O-])c1ccc(N2CC(CO)OC2=O)cc1 (stereo not given)
- MIC (Staphylococcus aureus [1]): 64 µg/mL (≈ 251 µM)
- MIC (Enterococcus faecalis [2]): 64 µg/mL (≈ 251 µM)

Molecule: CC(=O)c1ccc(N2CC(CCl)OC2=O)cc1 (stereo not given)
- MIC (Staphylococcus aureus [1]): 32 µg/mL (≈ 126 µM)
- MIC (Enterococcus faecalis [2]): 64 µg/mL (≈ 252 µM)

Molecule: CC(=O)c1ccc(N2CC(CN=[N+]=[N-])OC2=O)cc1 (stereo not given)
- MIC (Staphylococcus aureus [1]): > 128 µg/mL
- MIC (Enterococcus faecalis [2]): > 128 µg/mL

Molecule: CC(=O)c1ccc(N2C[C@H](CNC(=O)C(Cl)Cl)OC2=O)cc1
- MIC (Staphylococcus aureus [1]): 2 µg/mL (≈ 5.79 µM)
- MIC (Enterococcus faecalis [2]): 2 µg/mL (≈ 5.79 µM)

Molecule: CC1CN(c2ccc(C(C)C)cc2)C(=O)O1 (stereo not given)
- MIC (Staphylococcus aureus [1]): 128 µg/mL (≈ 584 µM)
- MIC (Enterococcus faecalis [2]): 128 µg/mL (≈ 584 µM)

Molecule: CC(=O)c1ccc(N2C[C@H](CNC(N)=O)OC2=O)cc1
- MIC (Staphylococcus aureus [1]): 4 µg/mL (≈ 14.4 µM)
- MIC (Enterococcus faecalis [2]): 1 µg/mL (≈ 3.61 µM)

Molecule: GENTAMICIN
- MIC (Enterococcus faecalis [3]): 16 µg/mL
- MIC (Staphylococcus aureus [4]): 0.25 µg/mL

Molecule: CC(=O)c1ccc(N2C[C@H](CNC(=O)C3CC3)OC2=O)cc1
- MIC (Staphylococcus aureus [1]): 8 µg/mL (≈ 26.5 µM)
- MIC (Enterococcus faecalis [2]): 4 µg/mL (≈ 13.2 µM)

Molecule: COC(=O)c1nnn(CC2CN(c3ccc(C(C)=O)cc3)C(=O)O2)c1C(=O)OC (stereo not given)
- MIC (Staphylococcus aureus [1]): > 128 µg/mL
- MIC (Enterococcus faecalis [2]): > 128 µg/mL

Molecule: CC(=O)NCC(=O)NC[C@H]1CN(c2ccc(C(C)=O)cc2)C(=O)O1
- MIC (Staphylococcus aureus [1]): 128 µg/mL (≈ 384 µM)
- MIC (Enterococcus faecalis [2]): > 128 µg/mL

Molecule: CC(=O)c1ccc(N2C[C@H](CNC(=O)OC(C)(C)C)OC2=O)cc1
- MIC (Staphylococcus aureus [1]): 128 µg/mL (≈ 383 µM)
- MIC (Enterococcus faecalis [2]): 128 µg/mL (≈ 383 µM)

Molecule: CC(C)c1ccc(N2CC(CN=[N+]=[N-])OC2=O)cc1 (stereo not given)
- MIC (Staphylococcus aureus [1]): > 128 µg/mL
- MIC (Enterococcus faecalis [2]): > 128 µg/mL

Molecule: CC(=O)c1ccc(N2CC(CN)OC2=O)cc1.Cl (stereo not given)
- MIC (Staphylococcus aureus [1]): > 128 µg/mL
- MIC (Enterococcus faecalis [2]): > 128 µg/mL

Molecule: CN[C@H](CC(C)C)C(=O)N[C@H]1C(=O)N[C@@H](CC(N)=O)C(=O)N[C@H]2C(=O)N[C@H]3C(=O)N[C@H](C(=O)N[C@H](C(=O)O)c4cc(O)cc(O)c4-c4cc3ccc4O)[C@H](O)c3ccc(c(Cl)c3)Oc3cc2cc(c3O[C@@H]2O[C@H](CO)[C@@H](O)[C@H](O)[C@H]2O[C@H]2C[C@](C)(N)[C@H](O)[C@H](C)O2)Oc2ccc(cc2Cl)[C@H]1O [VANCOMYCIN]
- MIC (Enterococcus faecalis [2]): 2 µg/mL (≈ 1.38 µM)

Molecule: CC(=O)OCC1CN(c2ccc(C(C)C)cc2)C(=O)O1 (stereo not given)
- MIC (Staphylococcus aureus [1]): 128 µg/mL (≈ 462 µM)
- MIC (Enterococcus faecalis [2]): 128 µg/mL (≈ 462 µM)

Molecule: CCCC(=O)OCC1CN(c2ccc(C(C)=O)cc2)C(=O)O1 (stereo not given)
- MIC (Staphylococcus aureus [1]): 64 µg/mL (≈ 210 µM)
- MIC (Enterococcus faecalis [2]): > 128 µg/mL

Molecule: NS(=O)(=O)c1ccc(N2CC(CCl)OC2=O)cc1 (stereo not given)
- MIC (Staphylococcus aureus [1]): 16 µg/mL (≈ 55 µM)
- MIC (Enterococcus faecalis [2]): > 128 µg/mL

Molecule: CC(=O)NCC1CN(c2ccc(S(N)(=O)=O)cc2)C(=O)O1 (stereo not given)
- MIC (Staphylococcus aureus [1]): 32 µg/mL (≈ 102 µM)
- MIC (Enterococcus faecalis [2]): 16 µg/mL (≈ 51.1 µM)

Molecule: CCC1CN(c2ccc(C(C)C)cc2)C(=O)O1 (stereo not given)
- MIC (Staphylococcus aureus [1]): > 128 µg/mL
- MIC (Enterococcus faecalis [2]): > 128 µg/mL

Molecule: CC(=O)c1ccc(N2CC(CF)OC2=O)cc1 (stereo not given)
- MIC (Staphylococcus aureus [1]): 64 µg/mL (≈ 270 µM)
- MIC (Enterococcus faecalis [2]): 128 µg/mL (≈ 540 µM)

Molecule: CS(=O)(=O)c1ccc(N2CC(CN=[N+]=[N-])OC2=O)cc1 (stereo not given)
- MIC (Staphylococcus aureus [1]): 16 µg/mL (≈ 54 µM)
- MIC (Enterococcus faecalis [2]): 8 µg/mL (≈ 27 µM)

Molecule: COCC(=O)NC[C@H]1CN(c2ccc(C(C)=O)cc2)C(=O)O1
- MIC (Staphylococcus aureus [1]): 32 µg/mL (≈ 104 µM)
- MIC (Enterococcus faecalis [2]): 32 µg/mL (≈ 104 µM)

Molecule: CC(=O)CC(=O)NC[C@H]1CN(c2ccc(C(C)=O)cc2)C(=O)O1
- MIC (Staphylococcus aureus [1]): 8 µg/mL (≈ 25.1 µM)
- MIC (Enterococcus faecalis [2]): 16 µg/mL (≈ 50.3 µM)

Molecule: CSc1ccc(N2CC(CO)OC2=O)cc1 (stereo not given)
- MIC (Staphylococcus aureus [1]): 128 µg/mL (≈ 535 µM)
- MIC (Enterococcus faecalis [2]): 128 µg/mL (≈ 535 µM)

Molecule: CC(=O)NC[C@H]1CN(c2ccc(C(C)=O)cc2)C(=O)O1 [DUP-721]
- MIC (Staphylococcus aureus [1]): 0.5 µg/mL (≈ 1.81 µM)
- MIC (Enterococcus faecalis [2]): 1 µg/mL (≈ 3.62 µM)

Molecule: COC(=O)NC[C@H]1CN(c2ccc(C(C)=O)cc2)C(=O)O1
- MIC (Staphylococcus aureus [1]): 4 µg/mL (≈ 13.7 µM)
- MIC (Enterococcus faecalis [2]): 4 µg/mL (≈ 13.7 µM)

Molecule: CC(=O)c1ccc(N2C[C@H](CNC(=O)N(C)C)OC2=O)cc1
- MIC (Staphylococcus aureus [1]): 128 µg/mL (≈ 419 µM)
- MIC (Enterococcus faecalis [2]): 128 µg/mL (≈ 419 µM)

Molecule: CC(=O)c1ccc(N2CC(COP(=O)(O)O)OC2=O)cc1 (stereo not given)
- MIC (Staphylococcus aureus [1]): > 128 µg/mL
- MIC (Enterococcus faecalis [2]): > 128 µg/mL

Molecule: CC(=O)c1ccc(N2CC(C)OC2=O)cc1 (stereo not given)
- MIC (Staphylococcus aureus [1]): > 128 µg/mL
- MIC (Enterococcus faecalis [2]): > 128 µg/mL

Molecule: CCC1CN(c2ccc(S(C)(=O)=O)cc2)C(=O)O1 (stereo not given)
- MIC (Staphylococcus aureus [1]): 128 µg/mL (≈ 475 µM)
- MIC (Enterococcus faecalis [2]): 128 µg/mL (≈ 475 µM)
